Results: patent US20260035365A1, “1H-PYRROLO[3,2-B]PYRIDINE DERIVATIVES AS IRREVERSIBLE INHIBITORS OF MUTANT EGFR FOR THE TREATMENT OF CANCER” (Bayer Aktiengesellschaft, priority 2022, published 2026)
pIC50: −log10 of the molar value.

Experiments:
[1] = target: mutEGFR (D770_N771insNPG, T790); assay: mutEGFR (D770_N771insNPG, T790) kinase assay; format: biochemical, human
[2] = target: mutEGFR (D770_N771insSVD) (Homo sapiens, UniProt P00533, INS767SVD); assay: Exon20-mutant-EGFR (D770_N771insSVD) TR-FRET kinase assay; format: biochemical; conditions: 2 mM ATP, 15 min preincubation
In short: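 GST-fused human EGFR fragment R669-A1210 carrying the SVD insertion, Sf9-expressed, typically 15 pg/μl, was preincubated with compound for 15 min at 22° C in pH 7.0 Hepes/MgCl2 buffer. Phosphorylation was read by HTRF (665/620 nm ratio), normalised to no-inhibitor and no-enzyme controls.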

[3] = system: BA/F3 (EGFR D770_N771 insSVD T790M) cells; assay: Ba/F3 cell survival assay (Cell Titer-Glo), EGFR-insSVD T790M; format: cell-based; conditions: Ba/F3 EGFR-D770-N771ins_SVD; 48 h, without IL-3, with EGF
Experimental: 293T cells from ATCC were transfected with pBABEpuro expression constructs for WT EGFR or EGFR-insSVD, or EGFR-insSVD T790M, and pCL-Eco packaging vector using Fugene-6 transfection reagent from Promega. Plates were incubated at 37° C. for 48 h. Retrovirus was harvested by filtering the media supernatant through a 0.45 μm filter.
Ba/F3 cells purchased from DSMZ were grown in RPMI+10% FBS+10 ng/mL IL-3 and infected with filtered retroviral supernatant at a 1:2 dilution. Polybrene was added to a concentration of 8 μg/mL, plates were spun for 90 min, and incubated for 16 h at 37° C. 2 μg/mL puromycin was added to the infected cells 24 h after infection and cells were continually grown in the presence of puromycin and 10 ng/mL IL-3. Following stably expressing Ba/F3 cell lines were generated: Ba/F3-EGFR-WT, Ba/F3-EGFR-insSVD, Ba/F3-EGFR-insSVD T790M, (Ba/F3-vector-control).
For cell survival assays, Ba/F3 cells were grown to a density of 1-2 million cells per mL, spun down and resuspended in media without IL-3, and replated at a concentration of 200,000-500,000 cells per mL. The cells ectopically expressing WT EGFR, EGFR-insSVD, or EGFR-insSVD T790M were plated with 10 ng/mL Millipore Culture grade EGF. The cells ectopically expressing pBABEpuro empty vector were plated with 10 ng/mL IL-3.
2 days later, cells were plated in 50 μL in a 384 well plate at a concentration of 4000 cells per well for cells assayed in the absence of IL-3 and 2000 cells per well for cells assayed in the presence of IL-3. 100 nL of compound was added to each well using a 100 nL pin head, and plates were incubated at 37° C. for 48 h.
Cell viability was measured by adding 20 μL of Cell Titer-Glo Luminescent Cell Viability Reagent diluted 1:3 in PBS. Plates were sealed with Perkin Elmer Top-Seal, inverted several times to mix, and immediately centrifuged at 1000 rpm for 2 min. Plates were incubated in low light conditions for 8-10 min and luminescence was measured.

BA/F3 (insSVD) cells = assay: Ba/F3 cell survival assay (Cell Titer-Glo), EGFR-insSVD; format: cell-based; conditions: Mus musculus, BaF3, 48 h, without IL-3, with EGF
In short: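 Ba/F3 cells stably expressing EGFR-insSVD or insSVD T790M via retrovirus (puromycin-selected), switched from IL-3 to 10 ng/mL EGF for 2 days, then plated at 4000 cells/well. Compound added by 100 nL pin transfer; 48 h at 37° C. Viability by CellTiter-Glo luminescence.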

mutEGFR (D770_N771insSVD), sequence (P00533 with tags, fused parts or gaps INS767SVD limits assumed): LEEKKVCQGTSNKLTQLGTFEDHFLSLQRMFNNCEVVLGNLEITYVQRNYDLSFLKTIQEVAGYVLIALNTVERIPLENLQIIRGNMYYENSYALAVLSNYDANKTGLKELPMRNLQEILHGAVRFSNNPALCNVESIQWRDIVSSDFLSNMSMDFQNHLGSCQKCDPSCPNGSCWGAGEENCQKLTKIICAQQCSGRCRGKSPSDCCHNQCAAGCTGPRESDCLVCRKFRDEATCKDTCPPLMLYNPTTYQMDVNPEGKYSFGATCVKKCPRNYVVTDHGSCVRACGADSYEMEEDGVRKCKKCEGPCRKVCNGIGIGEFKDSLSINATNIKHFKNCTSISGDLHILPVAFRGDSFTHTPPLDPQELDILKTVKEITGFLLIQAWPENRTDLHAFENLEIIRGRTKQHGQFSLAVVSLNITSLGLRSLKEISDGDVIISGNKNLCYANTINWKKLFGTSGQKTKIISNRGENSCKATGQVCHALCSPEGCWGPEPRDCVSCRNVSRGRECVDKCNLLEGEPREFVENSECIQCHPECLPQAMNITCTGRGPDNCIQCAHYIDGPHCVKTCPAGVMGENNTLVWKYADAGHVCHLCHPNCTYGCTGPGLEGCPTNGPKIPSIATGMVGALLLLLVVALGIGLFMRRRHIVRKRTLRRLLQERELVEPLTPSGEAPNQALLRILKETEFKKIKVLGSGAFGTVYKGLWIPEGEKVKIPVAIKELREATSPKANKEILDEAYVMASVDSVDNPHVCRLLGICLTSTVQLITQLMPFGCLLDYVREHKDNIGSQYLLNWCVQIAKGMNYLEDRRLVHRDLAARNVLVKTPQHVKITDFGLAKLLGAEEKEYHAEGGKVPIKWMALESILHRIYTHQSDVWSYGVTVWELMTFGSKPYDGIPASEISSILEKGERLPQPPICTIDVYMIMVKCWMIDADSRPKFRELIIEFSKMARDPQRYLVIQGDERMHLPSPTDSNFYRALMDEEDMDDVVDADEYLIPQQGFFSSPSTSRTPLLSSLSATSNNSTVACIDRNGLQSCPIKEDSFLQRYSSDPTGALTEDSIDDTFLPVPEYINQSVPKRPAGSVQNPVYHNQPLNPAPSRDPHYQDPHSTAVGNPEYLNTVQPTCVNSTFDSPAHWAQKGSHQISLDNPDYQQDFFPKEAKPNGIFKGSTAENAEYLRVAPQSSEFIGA
mutEGFR (D770_N771insNPG, T790), sequence (P00533 with tags, fused parts or gaps INS770NPG limits assumed): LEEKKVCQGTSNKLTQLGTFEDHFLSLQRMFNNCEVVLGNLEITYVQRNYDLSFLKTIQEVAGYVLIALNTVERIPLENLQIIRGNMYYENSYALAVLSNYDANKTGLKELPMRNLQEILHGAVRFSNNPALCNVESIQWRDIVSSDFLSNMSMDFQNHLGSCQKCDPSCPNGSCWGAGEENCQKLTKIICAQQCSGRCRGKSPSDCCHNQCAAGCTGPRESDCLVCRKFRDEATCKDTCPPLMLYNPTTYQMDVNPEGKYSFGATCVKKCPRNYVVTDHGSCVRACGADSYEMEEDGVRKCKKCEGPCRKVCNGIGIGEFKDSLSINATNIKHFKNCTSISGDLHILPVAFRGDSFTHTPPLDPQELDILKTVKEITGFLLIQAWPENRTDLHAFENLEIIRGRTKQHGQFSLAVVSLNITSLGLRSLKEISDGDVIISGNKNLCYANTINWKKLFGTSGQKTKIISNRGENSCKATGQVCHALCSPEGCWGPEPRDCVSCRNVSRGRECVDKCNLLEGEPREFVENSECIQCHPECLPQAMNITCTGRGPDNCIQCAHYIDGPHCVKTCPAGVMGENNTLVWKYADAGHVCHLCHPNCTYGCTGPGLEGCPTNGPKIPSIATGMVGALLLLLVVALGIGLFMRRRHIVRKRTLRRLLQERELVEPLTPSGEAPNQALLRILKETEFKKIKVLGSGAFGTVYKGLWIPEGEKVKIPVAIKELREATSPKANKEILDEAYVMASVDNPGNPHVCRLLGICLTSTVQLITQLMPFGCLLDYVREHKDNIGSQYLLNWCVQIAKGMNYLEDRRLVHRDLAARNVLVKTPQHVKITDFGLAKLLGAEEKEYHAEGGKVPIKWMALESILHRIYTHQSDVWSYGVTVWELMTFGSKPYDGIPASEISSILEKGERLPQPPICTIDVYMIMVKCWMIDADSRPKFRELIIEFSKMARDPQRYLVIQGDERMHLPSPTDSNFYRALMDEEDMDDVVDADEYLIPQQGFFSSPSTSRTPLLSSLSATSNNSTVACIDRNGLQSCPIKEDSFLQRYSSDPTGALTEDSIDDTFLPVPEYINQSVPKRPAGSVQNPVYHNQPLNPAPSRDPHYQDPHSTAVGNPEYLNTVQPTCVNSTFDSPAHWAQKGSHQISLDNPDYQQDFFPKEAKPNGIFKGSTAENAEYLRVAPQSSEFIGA

Row | SMILES | pIC50 [1] | pIC50 [2] | pIC50 [3] | pIC50 (BA/F3 (insSVD) cells)
1 | C=CC(=O)NCCOc1cnccc1-c1[nH]c2cc(F)cnc2c1-c1ccccc1 [Example 6, N-(2-{[4-(6-fluoro-3-phenyl-1H-pyrrolo[3,2-b]pyridin-2-yl)pyridin-3-yl]oxy}ethyl)prop-2-enamide] | 5.26 | 5.41 | 5.00 | 5.15
2 | C=CC(=O)N1CCC[C@H]1COc1cnccc1-c1[nH]c2cccnc2c1-c1cc(Cl)ccc1F [Example 42, 1-{(2S)-2-[({4-[3-(5-chloro-2-fluorophenyl)-1H-pyrrolo[3,2-b]pyridin-2-yl]pyridin-3-yl}oxy)methyl]pyrrolidin-1-yl}prop-2-en-1-one] | 8.55 | 8.95 | 5.44 | 7.35
3 | C=CC(=O)NCCCOc1cnccc1-c1[nH]c2cccnc2c1-c1ccccc1 [Example 5, N-(3-{[4-(3-phenyl-1H-pyrrolo[3,2-b]pyridin-2-yl)pyridin-3-yl]oxy}propyl)prop-2-enamide] | < 4.70 | 4.95 | 5.00 | 5.00
4 | C=CC(=O)N(C)CCOc1cnccc1-c1[nH]c2cccnc2c1-c1cccc(F)c1 [Example 14, N-[2-({4-[3-(3-fluorophenyl)-1H-pyrrolo[3,2-b]pyridin-2-yl]pyridin-3-yl}oxy)ethyl]-N-methylprop-2-enamide] | 7.33 | 7.79 | 5.00 | 6.08
5 | CC#CC(=O)N(C)CCOc1cnccc1-c1[nH]c2cccnc2c1-c1ccccc1 [Example 28, N-methyl-N-(2-{[4-(3-phenyl-1H-pyrrolo[3,2-b]pyridin-2-yl)pyridin-3-yl]oxy}ethyl)but-2-ynamide] | < 4.70 | 5.19 | 5.00 | 5.00
6 | C=CC(=O)N(C)CCOc1cnccc1-c1[nH]c2cccnc2c1-c1ccccc1 [Example 4, N-methyl-N-(2-{[4-(3-phenyl-1H-pyrrolo[3,2-b]pyridin-2-yl)pyridin-3-yl]oxy}ethyl)prop-2-enamide] | 7.77 | 8.12 | 5.00 | 6.46
7 | C=CC(=O)N(C)CCOc1cnccc1-c1[nH]c2cccnc2c1-c1ccc2cccnc2c1 [Example 18, N-methyl-N-[2-({4-[3-(quinolin-7-yl)-1H-pyrrolo[3,2-b]pyridin-2-yl]pyridin-3-yl}oxy)ethyl]prop-2-enamide] | 5.78 | 6.26 | 5.00 | 5.10
8 | C=CC(=O)NCCOc1cnccc1-c1[nH]c2cccnc2c1-c1ccccc1 [Example 2, N-(2-{[4-(3-phenyl-1H-pyrrolo[3,2-b]pyridin-2-yl)pyridin-3-yl]oxy}ethyl)prop-2-enamide] | 6.12 | 6.34 | 5.00 | 5.30
9 | C=CC(=O)N(CC)CCOc1cnccc1-c1[nH]c2cccnc2c1-c1ccccc1 [Example 32, N-ethyl-N-(2-{[4-(3-phenyl-1H-pyrrolo[3,2-b]pyridin-2-yl)pyridin-3-yl]oxy}ethyl)prop-2-enamide] | 7.52 | 7.82 | 5.02 | 6.44
10 | C=CC(=O)NCCOc1cnccc1-c1[nH]c2cccnc2c1-c1ccc(F)cc1 [Example 1, N-[2-({4-[3-(4-fluorophenyl)-1H-pyrrolo[3,2-b]pyridin-2-yl]pyridin-3-yl}oxy)ethyl]prop-2-enamide] | 6.22 | 6.38 | 5.00 | 5.35
11 | C=CC(=O)N(C)CCOc1cnccc1-c1[nH]c2cccnc2c1-c1ccc(Cl)c(C(=O)OC)c1 [Example 13, Methyl 2-chloro-5-[2-(3-{2-[methyl(prop-2-enoyl)amino]ethoxy}pyridin-4-yl)-1H-pyrrolo[3,2-b]pyridin-3-yl]benzoate] | 5.86 | 6.14 | 5.00 | 5.21
12 | C=CC(=O)N(C)CCOc1cnccc1-c1[nH]c2cccnc2c1-c1cccc(F)c1OC [Example 19, N-[2-({4-[3-(3-fluoro-2-methoxyphenyl)-1H-pyrrolo[3,2-b]pyridin-2-yl]pyridin-3-yl}oxy)ethyl]-N-methylprop-2-enamide] | 6.10 | 6.75 | 5.00 | 5.21
13 | C=CC(=O)N1CCC[C@H]1COc1cnccc1-c1[nH]c2cccnc2c1-c1ccccc1 [Example 34, 1-[(2S)-2-({[4-(3-phenyl-1H-pyrrolo[3,2-b]pyridin-2-yl)pyridin-3-yl]oxy}methyl)pyrrolidin-1-yl]prop-2-en-1-one] | 8.69 | 9.44 | 6.12 | 7.77
14 | C=CS(=O)(=O)N(C)CCOc1cnccc1-c1[nH]c2cccnc2c1-c1ccccc1 [Example 25, N-methyl-N-(2-{[4-(3-phenyl-1H-pyrrolo[3,2-b]pyridin-2-yl)pyridin-3-yl]oxy}ethyl)ethenesulfonamide] | 8.68 | 9.30 | 5.41 | 7.41
15 | C=CC(=O)N(C)CCOc1cnccc1-c1[nH]c2cccnc2c1-c1ccc(F)c(Cl)c1 [Example 24, N-[2-({4-[3-(3-chloro-4-fluorophenyl)-1H-pyrrolo[3,2-b]pyridin-2-yl]pyridin-3-yl}oxy)ethyl]-N-methylprop-2-enamide] | 7.68 | 7.92 | 5.08 | 6.14
16 | CN(C)C/C=C/C(=O)N(C)CCOc1cnccc1-c1[nH]c2cccnc2c1-c1ccccc1 [Example 26, (2E)-4-(dimethylamino)-N-methyl-N-(2-{[4-(3-phenyl-1H-pyrrolo[3,2-b]pyridin-2-yl)pyridin-3-yl]oxy}ethyl)but-2-enamide] | 6.48 | 7.18 | 5.00 | 5.82
17 | C#CC(=O)N(C)CCOc1cnccc1-c1[nH]c2cccnc2c1-c1ccccc1 [Example 27, N-methyl-N-(2-{[4-(3-phenyl-1H-pyrrolo[3,2-b]pyridin-2-yl)pyridin-3-yl]oxy}ethyl)prop-2-ynamide] | 7.16 | 7.71 | 5.08 | 6.27
18 | C=CS(=O)(=O)N(CC)CCOc1cnccc1-c1[nH]c2cccnc2c1-c1ccccc1 [Example 33, N-ethyl-N-(2-{[4-(3-phenyl-1H-pyrrolo[3,2-b]pyridin-2-yl)pyridin-3-yl]oxy}ethyl)ethenesulfonamide] | 8.72 | 9.45 | 6.60 | 7.51
19 | C=CC(=O)N(C)CCOc1cnccc1-c1[nH]c2cccnc2c1-c1ccc(Cl)c(Cl)c1 [Example 23, N-[2-({4-[3-(3,4-dichlorophenyl)-1H-pyrrolo[3,2-b]pyridin-2-yl]pyridin-3-yl}oxy)ethyl]-N-methylprop-2-enamide] | 7.31 | 7.43 | 5.05 | 5.67
